What all share (format): biochemical
Assay [1] has as its target T1, 26S proteasome isolated from AGS cells (Homo sapiens, UniProt P28074).
T1 construct: purified 26S proteasome isolated from AGS cells; endogenous in cells; host or cells: AGS cells
T1 sequence (P28074 60-263): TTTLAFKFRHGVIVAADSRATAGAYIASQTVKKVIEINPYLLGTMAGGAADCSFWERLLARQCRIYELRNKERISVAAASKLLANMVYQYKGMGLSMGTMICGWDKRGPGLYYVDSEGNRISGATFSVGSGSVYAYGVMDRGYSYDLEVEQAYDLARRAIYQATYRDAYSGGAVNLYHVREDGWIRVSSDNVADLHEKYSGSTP
Briefly: 26S proteasome inhibition. As to the method: This assay was carried out in the same way as described for 20S proteasome (vide supra), except using purified 26S proteasome isolated from AGS cells. To extract 26S proteasome from cells, they were centrifuged at 1300 rpm for 3 min at 37 °C and the supernatant was rejected. The pellet was then resuspended in 5 mL of HBSS. After this step, the cells were centrifuged again under the conditions referred to above and the supernatant was rejected. Then, 1 mL of cell lysis buffer was added, before being placed in ice (4 °C) for 30 min. Subsequently, the mixture was centrifuged at 14,000 g during 30 min at 4 °C. The pellet was rejected, and the supernatant was kept in an Eppendorf tube. The quantity of protein isolated was determined by Bradford Assay.
A stock solution of bovine serum albumin (BSA) (1.0 mg/mL) was prepared in H2O. From the stock solution, six concentrations were prepared: 5%, 4%, 3%, 2%, 1% and 0% stock solution in H2O. An aliquot of each sample (40 µL) was added to a solution of the Bradford reagent (200 µL). After 5 min, the absorbance was measured at 595 nm and the calibration curve was plotted (correlation > 0.99). […] After 5 min, the absorbance was measured at 595 nm and the result was compared with the correlation curve in order to calculate the concentration of protein.

Assay [2] addresses 20S proteasome isolated from erythrocytes (Homo sapiens, UniProt P28074). Briefly: 20S proteasome inhibition (chymotrypsin-like activity). On the set-up: purified 20S proteasome isolated from erythrocytes (Enzo Life Sciences); purchased Enzo Life Sciences; host or cells: erythrocytes. As to the method: Proteasome activity was measured by adapting a method described by Silva et al.. The substrate used to study chymotrypsin-like enzyme activity was Suc-Leu-Leu-Val-Tyr-AMC and the enzyme used was purified 20S proteasome isolated from erythrocytes (Enzo Life Sciences). […] The plate was incubated at 37 °C in the dark for 2 h. […] Lactacystin was used as positive control.

Assay [3] deals with T2, LOX from glycine max (soybean) (Glycine max, UniProt P08170).
T2 construct: purchased Sigma-Aldrich
T2 sequence (P08170 1-839): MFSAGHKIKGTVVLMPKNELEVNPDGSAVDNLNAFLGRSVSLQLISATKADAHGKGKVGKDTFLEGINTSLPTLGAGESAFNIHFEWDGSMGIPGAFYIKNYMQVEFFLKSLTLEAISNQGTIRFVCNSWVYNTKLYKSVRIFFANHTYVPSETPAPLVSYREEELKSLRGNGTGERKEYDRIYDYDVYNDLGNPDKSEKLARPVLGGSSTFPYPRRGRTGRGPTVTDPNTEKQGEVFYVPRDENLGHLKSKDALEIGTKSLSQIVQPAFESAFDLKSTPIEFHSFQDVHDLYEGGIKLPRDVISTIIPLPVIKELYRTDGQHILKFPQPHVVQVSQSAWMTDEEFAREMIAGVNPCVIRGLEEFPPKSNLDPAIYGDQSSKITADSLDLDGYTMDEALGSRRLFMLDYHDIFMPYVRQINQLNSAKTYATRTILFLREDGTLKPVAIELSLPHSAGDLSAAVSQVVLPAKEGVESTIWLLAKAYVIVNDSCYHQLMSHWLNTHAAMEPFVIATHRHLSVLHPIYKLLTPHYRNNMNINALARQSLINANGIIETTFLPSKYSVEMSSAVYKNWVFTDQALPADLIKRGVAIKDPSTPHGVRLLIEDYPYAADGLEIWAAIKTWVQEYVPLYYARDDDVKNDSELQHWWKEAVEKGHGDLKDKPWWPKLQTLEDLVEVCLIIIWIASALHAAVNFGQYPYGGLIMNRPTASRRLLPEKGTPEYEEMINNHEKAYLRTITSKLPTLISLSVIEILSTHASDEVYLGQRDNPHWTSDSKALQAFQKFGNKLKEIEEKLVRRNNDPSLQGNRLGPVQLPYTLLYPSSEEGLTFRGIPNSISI
Briefly: Lipoxygenase glycine max (soybean) assay. To be noted: dose-response assay; read-out: IC50 for LOX inhibition. As to the method:
The inhibitory effect on LOX was assessed in 96-well plates, using a modified version of a previously reported procedure from Pereira et al.. […] After 5 min pre-incubation at room temperature, the reaction was started by addition of linoleic acid substrate (20 µL of a 4.18 mM solution in ethanol). The reaction was monitored at 234 nm using a multiplate reader (Multiskan Thermo Fisher Scientific Oy, Vantaa, Finland), for 3 min.

As to `COc1ccc2cc(C(C)C(=O)NC(Cc3ccc(O)cc3)C(=O)NC(=Cc3ccccc3)C(=O)O)ccc2c1` [Compound 1, Npx-L-Tyr-Z-ΔPhe-OH], the “26S proteasome activity versus control” value in assay [1] (100 µM) was determined as 8.1%. Also, the IC50 in assay [1] (dose-response assay) came to 18.6 µM; in assay [2] (dose-response assay), 30.6 µM; in assay [3], 54.1 µM. Also, the remaining activity at 100 µM in assay [2] (100 µM, read-out: 20S proteasome enzyme activity remaining) turned out to be 11%.

The term IC50 denotes the concentration needed to halve the response being measured. The remaining activity is the activity still measured, relative to the control.

For the origin of these results see paper PMC7076388 (Pharmaceutics, 2020).
